Measurements taken from ChEMBL document CHEMBL3044778, “Lethal and sublethal effects of buprofezin and imidacloprid on the whitefly parasitoid Encarsia inaron (Hymenoptera: Aphelinidae)” (2012).
In brackets after ≈: the same amount, converted by molar mass. Activity calls are given as the source filed them. The calls are words filed in the database; no cut-off is given here.

Experiments:
Encarsia inaron [1] = experiment: Insecticidal activity against Encarsia inaron treated at pupal stages at 2000 ppm assessed as insect longevity (reference value: 8.7 days); assay type: functional, Pupal stage
Encarsia inaron [2] = experiment: Insecticidal activity against Encarsia inaron treated at larval stages at 31.25 ppm assessed as insect longevity (reference value: 5.60 days); assay type: functional, Larval stage
Encarsia inaron [3] = experiment: Insecticidal activity against Encarsia inaron adults reared on compound treated freshly cut cucumber leaves assessed as induction if insect mortality measured 48 hr post compound treatment; assay type: functional
Encarsia inaron [4] = experiment: Insecticidal activity against Encarsia inaron infested cucumber plants assessed as adult parasitoid emergence from parasitised host nymphs treated at pupae stages at 400 g ai/L SC measured 10 days post compound treatment (reference value: 79.60 %); assay type: functional
Encarsia inaron [5] = experiment: Insecticidal activity against Encarsia inaron infested cucumber plants assessed as adult parasitoid emergence from parasitised host nymphs treated at larval stages at 400 g ai/L SC measured 10 days post compound treatment (reference value: 79.60 %); assay type: functional, Larval stage
Encarsia inaron [6] = experiment: Insecticidal activity against Encarsia inaron treated at pupal stages assessed as mean generation time at 2000 ppm; assay type: functional, organism-based; details: Pupal stage
Encarsia inaron [7] = experiment: Insecticidal activity against Encarsia inaron treated at adult stages assessed as doubling time at 2000 ppm; assay type: functional, organism-based
Encarsia inaron [8] = experiment: Insecticidal activity against Encarsia inaron treated at adult stages assessed as mean generation time at 2000 ppm; assay type: functional, organism-based
Encarsia inaron [9] = experiment: Insecticidal activity against Encarsia inaron treated at adult stages assessed as finite rate of increase at 2000 ppm; assay type: functional, organism-based
Encarsia inaron [10] = experiment: Insecticidal activity against Encarsia inaron treated at adult stages assessed as intrinsic rate of increase at 2000 ppm; assay type: functional, organism-based
Encarsia inaron [11] = experiment: Insecticidal activity against Encarsia inaron treated at adult stages assessed as increase in net reproductive rate at 2000 ppm; assay type: functional, organism-based
Encarsia inaron [12] = experiment: Insecticidal activity against Encarsia inaron treated at pupal stages assessed as net reproductive rate at 2000 ppm; assay type: functional, organism-based; details: Pupal stage
Encarsia inaron [13] = experiment: Insecticidal activity against Encarsia inaron treated at pupal stages assessed as finite rate increase at 2000 ppm; assay type: functional, organism-based; details: Pupal stage
Encarsia inaron [14] = experiment: Insecticidal activity against Encarsia inaron treated at pupal stages assessed as intrinsic rate of increase at 2000 ppm; assay type: functional, organism-based; details: Pupal stage
Encarsia inaron [15] = experiment: Insecticidal activity against Encarsia inaron treated at larval stages assessed as mean generation time at 31.25 ppm; assay type: functional, organism-based; details: Larval stage
Encarsia inaron [16] = experiment: Insecticidal activity against Encarsia inaron treated at larval stages assessed as finite rate of increase at 31.25 ppm; assay type: functional, organism-based; details: Larval stage
Encarsia inaron [17] = experiment: Insecticidal activity against Encarsia inaron treated at larval stages assessed as intrinsic rate of increase at 31.25 ppm; assay type: functional, organism-based; details: Larval stage
Encarsia inaron [18] = experiment: Insecticidal activity against Encarsia inaron treated at adult stages at 2000 ppm assessed as insect total fecundity; assay type: functional, organism-based
Encarsia inaron [19] = experiment: Insecticidal activity against Encarsia inaron treated at pupal stages at 2000 ppm assessed as insect total fecundity; assay type: functional, organism-based; details: Pupal stage
Encarsia inaron [20] = experiment: Insecticidal activity against Encarsia inaron treated at larval stages at 31.25 ppm assessed as insect total fecundity; assay type: functional, organism-based; details: Larval stage
Encarsia inaron [21] = experiment: Insecticidal activity against Encarsia inaron treated at adult stages at 2000 ppm assessed as insect longevity (reference value: 8.95 days); assay type: functional
Encarsia inaron [22] = experiment: Insecticidal activity against Encarsia inaron treated at larval stages assessed as increase in net reproductive rate at 31.25 ppm; assay type: functional, organism-based; details: Larval stage
Encarsia inaron [23] = experiment: Insecticidal activity against Encarsia inaron treated at adult stages at 2000 ppm assessed as sex ratio (reference value: 0.72 no unit); assay type: functional
Encarsia inaron [24] = experiment: Insecticidal activity against Encarsia inaron treated at pupal stages at 2000 ppm assessed as sex ratio (reference value: 0.68 no unit); assay type: functional, Pupal stage
Encarsia inaron [25] = experiment: Insecticidal activity against Encarsia inaron treated at larval stages at 31.25 ppm assessed as sex ratio (reference value: 0.72 no unit); assay type: functional, Larval stage
Encarsia inaron [26] = experiment: Insecticidal activity against Encarsia inaron treated at adult stages at 2000 ppm assessed as insects eggs level per day (reference value: 2.33 egg/day); assay type: functional
Encarsia inaron [27] = experiment: Insecticidal activity against Encarsia inaron treated at pupal stages at 2000 ppm assessed as insects eggs level per day (reference value: 2.37 egg/day); assay type: functional, Pupal stage
Encarsia inaron [28] = experiment: Insecticidal activity against Encarsia inaron treated at larval stages at 31.25 ppm assessed as insects eggs level per day (reference value: 2.98 egg/day); assay type: functional, Larval stage
Encarsia inaron [29] = experiment: Insecticidal activity against Encarsia inaron treated at pupal stages at 62.5 ppm assessed as insect longevity (reference value: 8.7 days); assay type: functional, Pupal stage
Encarsia inaron [30] = experiment: Insecticidal activity against Encarsia inaron treated at larval stages at 62.5 ppm assessed as insect longevity (reference value: 5.60 days); assay type: functional, Larval stage
Encarsia inaron [31] = experiment: Insecticidal activity against Encarsia inaron infested cucumber plants assessed as adult parasitoid emergence from parasitised host nymphs treated at pupae stages at 350 g ai/L SC measured 10 days post compound treatment (reference value: 79.60 %); assay type: functional
Encarsia inaron [32] = experiment: Insecticidal activity against Encarsia inaron infested cucumber plants assessed as adult parasitoid emergence from parasitised host nymphs treated at larval stages at 350 g ai/L SC measured 10 days post compound treatment (reference value: 79.60 %); assay type: functional, Larval stage
Encarsia inaron [33] = experiment: Insecticidal activity against Encarsia inaron treated at adult stages assessed as intrinsic rate of increase at 23.37 ppm; assay type: functional, organism-based
Encarsia inaron [34] = experiment: Insecticidal activity against Encarsia inaron treated at adult stages assessed as increase in net reproductive rate at 23.37 ppm; assay type: functional, organism-based
Encarsia inaron [35] = experiment: Insecticidal activity against Encarsia inaron treated at adult stages assessed as doubling time at 23.37 ppm; assay type: functional, organism-based
Encarsia inaron [36] = experiment: Insecticidal activity against Encarsia inaron treated at adult stages assessed as mean generation time at 23.37 ppm; assay type: functional, organism-based
Encarsia inaron [37] = experiment: Insecticidal activity against Encarsia inaron treated at adult stages assessed as finite rate of increase at 23.37 ppm; assay type: functional, organism-based
Encarsia inaron [38] = experiment: Insecticidal activity against Encarsia inaron treated at pupal stages assessed as mean generation time at 62.5 ppm; assay type: functional, organism-based; details: Pupal stage
Encarsia inaron [39] = experiment: Insecticidal activity against Encarsia inaron treated at pupal stages assessed as net reproductive rate at 62.5 ppm; assay type: functional, organism-based; details: Pupal stage
Encarsia inaron [40] = experiment: Insecticidal activity against Encarsia inaron treated at pupal stages assessed as finite rate increase at 62.5 ppm; assay type: functional, organism-based; details: Pupal stage
Encarsia inaron [41] = experiment: Insecticidal activity against Encarsia inaron treated at pupal stages assessed as intrinsic rate of increase at 62.5 ppm; assay type: functional, organism-based; details: Pupal stage
Encarsia inaron [42] = experiment: Insecticidal activity against Encarsia inaron treated at adult stages at 23.37 ppm assessed as insect total fecundity; assay type: functional, organism-based
Encarsia inaron [43] = experiment: Insecticidal activity against Encarsia inaron treated at pupal stages at 62.5 ppm assessed as insect total fecundity; assay type: functional, organism-based; details: Pupal stage
Encarsia inaron [44] = experiment: Insecticidal activity against Encarsia inaron treated at larval stages at 62.5 ppm assessed as insect total fecundity; assay type: functional, organism-based; details: Larval stage
Encarsia inaron [45] = experiment: Insecticidal activity against Encarsia inaron treated at adult stages at 23.37 ppm assessed as insect longevity (reference value: 8.95 days); assay type: functional
Encarsia inaron [46] = experiment: Insecticidal activity against Encarsia inaron treated at larval stages assessed as mean generation time at 62.5 ppm; assay type: functional, organism-based; details: Larval stage
Encarsia inaron [47] = experiment: Insecticidal activity against Encarsia inaron treated at larval stages assessed as finite rate of increase at 62.5 ppm; assay type: functional, organism-based; details: Larval stage
Encarsia inaron [48] = experiment: Insecticidal activity against Encarsia inaron treated at larval stages assessed as intrinsic rate of increase at 62.5 ppm; assay type: functional, organism-based; details: Larval stage
Encarsia inaron [49] = experiment: Insecticidal activity against Encarsia inaron treated at larval stages assessed as increase in net reproductive rate at 62.5 ppm; assay type: functional, organism-based; details: Larval stage
Encarsia inaron [50] = experiment: Insecticidal activity against Encarsia inaron treated at adult stages at 23.37 ppm assessed as sex ratio (reference value: 0.72 no unit); assay type: functional
Encarsia inaron [51] = experiment: Insecticidal activity against Encarsia inaron treated at pupal stages at 62.5 ppm assessed as sex ratio (reference value: 0.68 no unit); assay type: functional, Pupal stage
Encarsia inaron [52] = experiment: Insecticidal activity against Encarsia inaron treated at larval stages at 62.5 ppm assessed as sex ratio (reference value: 0.72 no unit); assay type: functional, Larval stage
Encarsia inaron [53] = experiment: Insecticidal activity against Encarsia inaron treated at adult stages at 23.37 ppm assessed as insects eggs level per day (reference value: 2.33 egg/day); assay type: functional
Encarsia inaron [54] = experiment: Insecticidal activity against Encarsia inaron treated at pupal stages at 62.5 ppm assessed as insects eggs level per day (reference value: 2.37 egg/day); assay type: functional, Pupal stage
Encarsia inaron [55] = experiment: Insecticidal activity against Encarsia inaron treated at larval stages at 62.5 ppm assessed as insects eggs level per day (reference value: 2.98 egg/day); assay type: functional, Larval stage

CC(C)N1C(=O)N(c2ccccc2)CS/C1=N\C(C)(C)C [BUPROFEZIN]
Time (Encarsia inaron [1]): 8.5 days
Time (Encarsia inaron [2]): 7.05 days
LC50 (Encarsia inaron [3]): inactive
Activity (Encarsia inaron [4]): 63.4%
Activity (Encarsia inaron [5]): 2.6%
Activity (Encarsia inaron [6]): Active
Activity (Encarsia inaron [7]): inactive
Activity (Encarsia inaron [8]): inactive
Activity (Encarsia inaron [9]): inactive
Activity (Encarsia inaron [10]): inactive
Activity (Encarsia inaron [11]): inactive
Activity (Encarsia inaron [12]): Active
Activity (Encarsia inaron [13]): inactive
Activity (Encarsia inaron [14]): inactive
Activity (Encarsia inaron [15]): inactive
Activity (Encarsia inaron [16]): inactive
Activity (Encarsia inaron [17]): inactive
Activity (Encarsia inaron [18]): inactive
Activity (Encarsia inaron [19]): inactive
Activity (Encarsia inaron [20]): inactive
Time (Encarsia inaron [21]): 8.9 days
Activity (Encarsia inaron [22]): inactive
Ratio (Encarsia inaron [23]): 0.44
Ratio (Encarsia inaron [24]): 0.44
Ratio (Encarsia inaron [25]): 0.49
Activity (Encarsia inaron [26]): 4.58 day⁻¹
Activity (Encarsia inaron [27]): 1.24 day⁻¹
Activity (Encarsia inaron [28]): 3.55 day⁻¹

O=[N+]([O-])/N=C1\NCCN1Cc1ccc(Cl)nc1 [IMIDACLOPRID]
Time (Encarsia inaron [29]): 6.7 days
Time (Encarsia inaron [30]): 13.2 days
LC10 (Encarsia inaron [3]): 3.3 ppm
LC90 (Encarsia inaron [3]): 13407 ppm
LC50 (Encarsia inaron [3]; Encarsia inaron, 48 h): 209 µg/mL (≈ 817 µM)
Activity (Encarsia inaron [31]): 15%
Activity (Encarsia inaron [32]): 7%
Activity (Encarsia inaron [33]): inactive
Activity (Encarsia inaron [34]): inactive
Activity (Encarsia inaron [35]): inactive
Activity (Encarsia inaron [36]): inactive
Activity (Encarsia inaron [37]): inactive
Activity (Encarsia inaron [38]): Active
Activity (Encarsia inaron [39]): Active
Activity (Encarsia inaron [40]): inactive
Activity (Encarsia inaron [41]): inactive
Activity (Encarsia inaron [42]): Active
Activity (Encarsia inaron [43]): Active
Activity (Encarsia inaron [44]): Active
Time (Encarsia inaron [45]): 6.85 days
Activity (Encarsia inaron [46]): Active
Activity (Encarsia inaron [47]): Active
Activity (Encarsia inaron [48]): Active
Activity (Encarsia inaron [49]): Active
Ratio (Encarsia inaron [50]): 0.52
Ratio (Encarsia inaron [51]): 0.59
Ratio (Encarsia inaron [52]): 0.54
Activity (Encarsia inaron [53]): 4.75 day⁻¹
Activity (Encarsia inaron [54]): 2.77 day⁻¹
Activity (Encarsia inaron [55]): 5.44 day⁻¹
